Measured values reported in patent publication US20260306527A1, “PRMT INHIBITOR COMPOUNDS AND THE USES THEREOF” (Purdue Research Foundation, priority 2023, published 2026).

Molecular target: PRMT3 (Homo sapiens, UniProt O60678)
Experiment: SAHH-coupled fluorescence assay, inhibition of PRMT3
Type: biochemical
Set-up: PRMT3 (residues 211-531) was cloned into the pET28a-MHL expression vector; tag of the pET28a-MHL vector (not described); made in house; host or cells: Escherichia coli BL21(DE3)
Conditions: not given
Experimental: (§1) A fluorescence-based SAHH-coupled assay was applied to study the inhibition activity of all synthesized compounds on PRMT 1 and 3.
(§2) The PRMT3 methylation assay was performed under the following conditions in a final well volume of 100 μL: 20 mM Tris (pH=7.5), 0.01% Triton X-100, 5 μM SAHH, 0.25 μM PRMT3, 30 μM AdoMet, and 15 μM ThioGlo4. […] Fluorescence was monitored on a BMG CLARIOstar microplate reader with excitation 380 nm and emission 505 nm. Data were processed by using GraphPad Prism software 8.0. All experiments were performed in duplicate.
(§3) Next, the inhibition activity of the library was investigated for five PRMT members from type I PRMTs.
as §2, with “8.0.” for “8.0. All experiments were performed in duplicate.”

Chain of PRMT3 (O60678 211-531): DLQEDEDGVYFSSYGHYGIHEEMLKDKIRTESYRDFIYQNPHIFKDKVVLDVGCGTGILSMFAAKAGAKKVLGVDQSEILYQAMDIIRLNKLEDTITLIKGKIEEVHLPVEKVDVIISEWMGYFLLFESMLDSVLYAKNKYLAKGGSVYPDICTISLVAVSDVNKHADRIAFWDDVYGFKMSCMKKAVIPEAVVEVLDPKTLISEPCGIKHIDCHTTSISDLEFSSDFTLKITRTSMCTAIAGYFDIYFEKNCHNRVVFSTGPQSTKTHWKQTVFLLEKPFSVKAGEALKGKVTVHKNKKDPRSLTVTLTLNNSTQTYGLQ

| Compound | inhibition at 10 µM |
| --- | --- |
| Nc1ncnc2c1ncn2[C@@H]1O[C@H](CSCCNCc2cccc(-c3cccc4cn[nH]c34)c2)[C@@H](O)[C@H]1O [Compound 10h] | 12% |
| Nc1ncnc2c1ncn2[C@@H]1O[C@H](CSCCNCc2cccc(-c3cccc(O)c3)c2)[C@@H](O)[C@H]1O [Compound 10i] | 13% |
| Nc1ncnc2c1ncn2[C@@H]1O[C@H](CSCCNCc2cccc(-c3ccccc3O)c2)[C@@H](O)[C@H]1O [Compound 10j] | 10% |
| Nc1ncnc2c1ncn2[C@@H]1O[C@H](CSCCNCc2cccc(-c3ccncc3)c2)[C@@H](O)[C@H]1O [Compound 10k] | 10% |
| Nc1cccc(-c2cccc(CNCCSC[C@H]3O[C@@H](n4cnc5c(N)ncnc54)[C@H](O)[C@@H]3O)c2)c1 [Compound 10l] | 8% |
| Nc1ncnc2c1ncn2[C@@H]1O[C@H](CSCCCNCc2cccc(-c3ccc(O)cc3)c2)[C@@H](O)[C@H]1O [Compound 10n] | 21% |
| Nc1ncnc2c1ncn2[C@@H]1O[C@H](CSCCCNCc2cccc(-c3ccc(C(F)(F)F)cc3)c2)[C@@H](O)[C@H]1O [Compound 10o] | 24% |
| Nc1ncnc2c1ncn2[C@@H]1O[C@H](CSCCCNCc2cccc(-c3ccoc3)c2)[C@@H](O)[C@H]1O [Compound 10p] | 25% |
| Nc1ncnc2c1ncn2[C@@H]1O[C@H](CSCCCNCc2cccc(-c3cccc(F)c3)c2)[C@@H](O)[C@H]1O [Compound 10q] | 25% |
| Nc1ncnc2c1ncn2[C@@H]1O[C@H](CSCCCNCc2cccc(-c3ccc(F)c(O)c3)c2)[C@@H](O)[C@H]1O [Compound 10r] | 22% |
| Nc1ncnc2c1ncn2[C@@H]1O[C@H](CSCCCNCc2cccc(-c3cccc4cn[nH]c34)c2)[C@@H](O)[C@H]1O [Compound 10t] | 22% |
| COc1cc2nc(-c3ccc(Cl)cc3)nc(NCCSC[C@H]3O[C@@H](n4cnc5c(N)ncnc54)[C@H](O)[C@@H]3O)c2cc1OC [Compound 12a] | 4% |

Molecular target: T1, PRMT4 (Homo sapiens, UniProt Q86X55)
T1 sequence (Q86X55 1-608): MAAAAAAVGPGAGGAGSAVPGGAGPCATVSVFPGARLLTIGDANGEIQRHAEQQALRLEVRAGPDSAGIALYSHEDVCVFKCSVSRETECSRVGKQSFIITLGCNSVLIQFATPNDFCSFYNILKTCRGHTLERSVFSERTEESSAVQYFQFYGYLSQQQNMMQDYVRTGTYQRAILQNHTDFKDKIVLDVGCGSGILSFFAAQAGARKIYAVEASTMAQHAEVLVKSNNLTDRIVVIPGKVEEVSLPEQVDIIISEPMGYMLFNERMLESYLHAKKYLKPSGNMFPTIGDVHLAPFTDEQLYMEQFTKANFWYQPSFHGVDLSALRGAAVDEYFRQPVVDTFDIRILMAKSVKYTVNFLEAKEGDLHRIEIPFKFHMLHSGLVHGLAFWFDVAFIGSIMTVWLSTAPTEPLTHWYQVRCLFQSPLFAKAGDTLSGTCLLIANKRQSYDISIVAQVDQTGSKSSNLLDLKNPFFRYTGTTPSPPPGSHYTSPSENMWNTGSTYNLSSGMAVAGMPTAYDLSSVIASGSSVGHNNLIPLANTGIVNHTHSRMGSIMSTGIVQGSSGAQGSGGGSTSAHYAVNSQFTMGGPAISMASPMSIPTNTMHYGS
Experiment: radioactive assay (Reaction Biology Corp.), inhibition of PRMT4
Type: biochemical
Conditions: not given
Experimental: as §3
(§4) The PRMT 4, 6 and 8 methylation assays were performed by Reaction Biology corp.

| Compound | inhibition at 10 µM |
| --- | --- |
| Nc1ncnc2c1ncn2[C@@H]1O[C@H](CSCCNCc2cccc(-c3cccc4cn[nH]c34)c2)[C@@H](O)[C@H]1O [Compound 10h] | 100% |
| Nc1ncnc2c1ncn2[C@@H]1O[C@H](CSCCNCc2cccc(-c3cccc(O)c3)c2)[C@@H](O)[C@H]1O [Compound 10i] | 100% |
| Nc1ncnc2c1ncn2[C@@H]1O[C@H](CSCCNCc2cccc(-c3ccccc3O)c2)[C@@H](O)[C@H]1O [Compound 10j] | 99% |
| Nc1ncnc2c1ncn2[C@@H]1O[C@H](CSCCNCc2cccc(-c3ccncc3)c2)[C@@H](O)[C@H]1O [Compound 10k] | 99% |
| Nc1cccc(-c2cccc(CNCCSC[C@H]3O[C@@H](n4cnc5c(N)ncnc54)[C@H](O)[C@@H]3O)c2)c1 [Compound 10l] | 100% |
| Nc1ncnc2c1ncn2[C@@H]1O[C@H](CSCCCNCc2cccc(-c3ccc(O)cc3)c2)[C@@H](O)[C@H]1O [Compound 10n] | 96% |
| Nc1ncnc2c1ncn2[C@@H]1O[C@H](CSCCCNCc2cccc(-c3ccc(C(F)(F)F)cc3)c2)[C@@H](O)[C@H]1O [Compound 10o] | 97% |
| Nc1ncnc2c1ncn2[C@@H]1O[C@H](CSCCCNCc2cccc(-c3ccoc3)c2)[C@@H](O)[C@H]1O [Compound 10p] | 99% |
| Nc1ncnc2c1ncn2[C@@H]1O[C@H](CSCCCNCc2cccc(-c3cccc(F)c3)c2)[C@@H](O)[C@H]1O [Compound 10q] | 97% |
| Nc1ncnc2c1ncn2[C@@H]1O[C@H](CSCCCNCc2cccc(-c3ccc(F)c(O)c3)c2)[C@@H](O)[C@H]1O [Compound 10r] | 95% |
| Nc1ncnc2c1ncn2[C@@H]1O[C@H](CSCCCNCc2cccc(-c3cccc4cn[nH]c34)c2)[C@@H](O)[C@H]1O [Compound 10t] | 99% |
| COc1cc2nc(-c3ccc(Cl)cc3)nc(NCCSC[C@H]3O[C@@H](n4cnc5c(N)ncnc54)[C@H](O)[C@@H]3O)c2cc1OC [Compound 12a] | 69% |

Molecular target: PRMT6 (Homo sapiens, UniProt Q96LA8)
Sequence (Q96LA8 whole entry, species assumed): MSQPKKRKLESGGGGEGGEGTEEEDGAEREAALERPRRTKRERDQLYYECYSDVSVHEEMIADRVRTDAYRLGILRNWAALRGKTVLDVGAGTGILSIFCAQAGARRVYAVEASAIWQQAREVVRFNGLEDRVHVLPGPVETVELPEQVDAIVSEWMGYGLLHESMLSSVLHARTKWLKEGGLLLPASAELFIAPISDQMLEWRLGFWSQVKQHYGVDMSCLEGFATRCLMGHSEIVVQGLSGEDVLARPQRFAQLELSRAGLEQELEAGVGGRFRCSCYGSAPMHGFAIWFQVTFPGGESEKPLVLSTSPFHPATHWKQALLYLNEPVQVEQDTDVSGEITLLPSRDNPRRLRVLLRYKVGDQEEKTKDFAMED
Experiment: radioactive assay (Reaction Biology Corp.), inhibition of PRMT6
Type: biochemical
Conditions: not given
Experimental: as §3, §4

| Compound | inhibition at 10 µM |
| --- | --- |
| Nc1ncnc2c1ncn2[C@@H]1O[C@H](CSCCNCc2cccc(-c3cccc4cn[nH]c34)c2)[C@@H](O)[C@H]1O [Compound 10h] | 82% |
| Nc1ncnc2c1ncn2[C@@H]1O[C@H](CSCCNCc2cccc(-c3cccc(O)c3)c2)[C@@H](O)[C@H]1O [Compound 10i] | 55% |
| Nc1ncnc2c1ncn2[C@@H]1O[C@H](CSCCNCc2cccc(-c3ccccc3O)c2)[C@@H](O)[C@H]1O [Compound 10j] | 43% |
| Nc1ncnc2c1ncn2[C@@H]1O[C@H](CSCCNCc2cccc(-c3ccncc3)c2)[C@@H](O)[C@H]1O [Compound 10k] | 43% |
| Nc1cccc(-c2cccc(CNCCSC[C@H]3O[C@@H](n4cnc5c(N)ncnc54)[C@H](O)[C@@H]3O)c2)c1 [Compound 10l] | 53% |
| Nc1ncnc2c1ncn2[C@@H]1O[C@H](CSCCCNCc2cccc(-c3ccc(O)cc3)c2)[C@@H](O)[C@H]1O [Compound 10n] | 36% |
| Nc1ncnc2c1ncn2[C@@H]1O[C@H](CSCCCNCc2cccc(-c3ccc(C(F)(F)F)cc3)c2)[C@@H](O)[C@H]1O [Compound 10o] | 37% |
| Nc1ncnc2c1ncn2[C@@H]1O[C@H](CSCCCNCc2cccc(-c3ccoc3)c2)[C@@H](O)[C@H]1O [Compound 10p] | 66% |
| Nc1ncnc2c1ncn2[C@@H]1O[C@H](CSCCCNCc2cccc(-c3cccc(F)c3)c2)[C@@H](O)[C@H]1O [Compound 10q] | 36% |
| Nc1ncnc2c1ncn2[C@@H]1O[C@H](CSCCCNCc2cccc(-c3ccc(F)c(O)c3)c2)[C@@H](O)[C@H]1O [Compound 10r] | 74% |
| Nc1ncnc2c1ncn2[C@@H]1O[C@H](CSCCCNCc2cccc(-c3cccc4cn[nH]c34)c2)[C@@H](O)[C@H]1O [Compound 10t] | 87% |
| COc1cc2nc(-c3ccc(Cl)cc3)nc(NCCSC[C@H]3O[C@@H](n4cnc5c(N)ncnc54)[C@H](O)[C@@H]3O)c2cc1OC [Compound 12a] | 85% |

Same assay, conditions: 10 μM

| Compound | PRMT6 inhibition |
| --- | --- |
| COc1cc2nc(-c3ccc(Cl)cc3)nc(NCCSC[C@H]3O[C@@H](n4cnc5c(N)ncnc54)[C@H](O)[C@@H]3O)c2cc1OC [Compound 12a] | selective inhibition to PRMT6 |

Molecular target: T2, PRMT1 (Homo sapiens, UniProt Q99873)
T2 construct: made in house
T2 sequence (Q99873 whole entry, species assumed): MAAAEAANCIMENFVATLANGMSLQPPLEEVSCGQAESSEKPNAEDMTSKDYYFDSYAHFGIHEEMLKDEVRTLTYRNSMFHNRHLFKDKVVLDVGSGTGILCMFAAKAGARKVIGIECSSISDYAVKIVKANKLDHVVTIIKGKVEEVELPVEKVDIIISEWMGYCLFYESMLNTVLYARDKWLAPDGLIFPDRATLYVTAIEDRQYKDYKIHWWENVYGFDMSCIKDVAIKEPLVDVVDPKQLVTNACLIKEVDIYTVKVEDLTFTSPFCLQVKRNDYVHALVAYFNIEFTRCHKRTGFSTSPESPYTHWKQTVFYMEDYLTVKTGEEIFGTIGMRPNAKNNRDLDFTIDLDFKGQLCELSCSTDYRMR
Experiment: SAHH-coupled fluorescence assay, inhibition of PRMT1
Type: biochemical
Conditions: not given
Experimental: as §1
(§5) The PRMT1 methylation assay was performed under the following conditions in a final well volume of 100 μL: 2.5 mM HEPES (pH=7.0), 25 mM NaCl, 25 μM EDTA, 50 μM TCEP, 0.01% Triton X-100, 5 μM SAHH, 0.1 μM PRMT1, 10 μM AdoMet, and 10 μM ThioGlo4. […] The fluorescence signal was monitored on a BMG CLARIOstar microplate reader with excitation at 400 nm and emission at 465 nm for 15 min. Data were processed using GraphPad Prism software 8.0.
as §3
as §5, with “A fluorescence-based SAHH-coupled assay was applied to determine the inhibition activity of all synthesized compounds on PRMT 1 and 3. The PRMT1” for “The PRMT1”, “software 8.0. All experiments were performed in duplicate.” for “software 8.0.”

| Compound | inhibition at 10 µM |
| --- | --- |
| Nc1ncnc2c1ncn2[C@@H]1O[C@H](CSCCNCc2cccc(-c3cccc4cn[nH]c34)c2)[C@@H](O)[C@H]1O [Compound 10h] | 1% |
| Nc1ncnc2c1ncn2[C@@H]1O[C@H](CSCCNCc2cccc(-c3cccc(O)c3)c2)[C@@H](O)[C@H]1O [Compound 10i] | 15% |
| Nc1ncnc2c1ncn2[C@@H]1O[C@H](CSCCNCc2cccc(-c3ccccc3O)c2)[C@@H](O)[C@H]1O [Compound 10j] | 25% |
| Nc1ncnc2c1ncn2[C@@H]1O[C@H](CSCCNCc2cccc(-c3ccncc3)c2)[C@@H](O)[C@H]1O [Compound 10k] | 15% |
| Nc1cccc(-c2cccc(CNCCSC[C@H]3O[C@@H](n4cnc5c(N)ncnc54)[C@H](O)[C@@H]3O)c2)c1 [Compound 10l] | 7% |
| Nc1ncnc2c1ncn2[C@@H]1O[C@H](CSCCCNCc2cccc(-c3ccc(O)cc3)c2)[C@@H](O)[C@H]1O [Compound 10n] | 57% |
| Nc1ncnc2c1ncn2[C@@H]1O[C@H](CSCCCNCc2cccc(-c3ccc(C(F)(F)F)cc3)c2)[C@@H](O)[C@H]1O [Compound 10o] | 71% |
| Nc1ncnc2c1ncn2[C@@H]1O[C@H](CSCCCNCc2cccc(-c3ccoc3)c2)[C@@H](O)[C@H]1O [Compound 10p] | 54% |
| Nc1ncnc2c1ncn2[C@@H]1O[C@H](CSCCCNCc2cccc(-c3cccc(F)c3)c2)[C@@H](O)[C@H]1O [Compound 10q] | 63% |
| Nc1ncnc2c1ncn2[C@@H]1O[C@H](CSCCCNCc2cccc(-c3ccc(F)c(O)c3)c2)[C@@H](O)[C@H]1O [Compound 10r] | 52% |
| Nc1ncnc2c1ncn2[C@@H]1O[C@H](CSCCCNCc2cccc(-c3cccc4cn[nH]c34)c2)[C@@H](O)[C@H]1O [Compound 10t] | 69% |
| COc1cc2nc(-c3ccc(Cl)cc3)nc(NCCSC[C@H]3O[C@@H](n4cnc5c(N)ncnc54)[C@H](O)[C@@H]3O)c2cc1OC [Compound 12a] | 1% |

Molecular target: PRMT8 (Homo sapiens, UniProt Q9NR22)
Sequence (Q9NR22 whole entry, species assumed): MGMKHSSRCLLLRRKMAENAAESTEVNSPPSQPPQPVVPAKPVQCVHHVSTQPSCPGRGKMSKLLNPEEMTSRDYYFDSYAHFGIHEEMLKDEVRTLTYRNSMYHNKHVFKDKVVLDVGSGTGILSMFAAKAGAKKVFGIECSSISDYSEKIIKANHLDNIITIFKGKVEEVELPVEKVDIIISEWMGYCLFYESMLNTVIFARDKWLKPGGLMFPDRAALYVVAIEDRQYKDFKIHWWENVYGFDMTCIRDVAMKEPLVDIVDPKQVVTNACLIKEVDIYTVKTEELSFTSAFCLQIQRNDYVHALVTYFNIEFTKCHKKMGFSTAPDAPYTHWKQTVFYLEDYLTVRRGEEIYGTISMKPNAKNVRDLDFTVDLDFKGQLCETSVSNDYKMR
Experiment: radioactive assay (Reaction Biology Corp.), inhibition of PRMT8
Type: biochemical
Conditions: not given
Experimental: as §3, §4

| Compound | inhibition at 10 µM |
| --- | --- |
| Nc1ncnc2c1ncn2[C@@H]1O[C@H](CSCCNCc2cccc(-c3cccc4cn[nH]c34)c2)[C@@H](O)[C@H]1O [Compound 10h] | 58% |
| Nc1ncnc2c1ncn2[C@@H]1O[C@H](CSCCNCc2cccc(-c3cccc(O)c3)c2)[C@@H](O)[C@H]1O [Compound 10i] | 74% |
| Nc1ncnc2c1ncn2[C@@H]1O[C@H](CSCCNCc2cccc(-c3ccccc3O)c2)[C@@H](O)[C@H]1O [Compound 10j] | 56% |
| Nc1ncnc2c1ncn2[C@@H]1O[C@H](CSCCNCc2cccc(-c3ccncc3)c2)[C@@H](O)[C@H]1O [Compound 10k] | 69% |
| Nc1cccc(-c2cccc(CNCCSC[C@H]3O[C@@H](n4cnc5c(N)ncnc54)[C@H](O)[C@@H]3O)c2)c1 [Compound 10l] | 62% |
| Nc1ncnc2c1ncn2[C@@H]1O[C@H](CSCCCNCc2cccc(-c3ccc(O)cc3)c2)[C@@H](O)[C@H]1O [Compound 10n] | 69% |
| Nc1ncnc2c1ncn2[C@@H]1O[C@H](CSCCCNCc2cccc(-c3ccc(C(F)(F)F)cc3)c2)[C@@H](O)[C@H]1O [Compound 10o] | 65% |
| Nc1ncnc2c1ncn2[C@@H]1O[C@H](CSCCCNCc2cccc(-c3ccoc3)c2)[C@@H](O)[C@H]1O [Compound 10p] | 54% |
| Nc1ncnc2c1ncn2[C@@H]1O[C@H](CSCCCNCc2cccc(-c3cccc(F)c3)c2)[C@@H](O)[C@H]1O [Compound 10q] | 66% |
| Nc1ncnc2c1ncn2[C@@H]1O[C@H](CSCCCNCc2cccc(-c3ccc(F)c(O)c3)c2)[C@@H](O)[C@H]1O [Compound 10r] | 72% |
| Nc1ncnc2c1ncn2[C@@H]1O[C@H](CSCCCNCc2cccc(-c3cccc4cn[nH]c34)c2)[C@@H](O)[C@H]1O [Compound 10t] | 72% |
| COc1cc2nc(-c3ccc(Cl)cc3)nc(NCCSC[C@H]3O[C@@H](n4cnc5c(N)ncnc54)[C@H](O)[C@@H]3O)c2cc1OC [Compound 12a] | 23% |
